Assay: Selection of antimicrobial agents: solubility in aqueous solution, stability, compatibility with the coating composition

## N=C(NCCCCCCNC(=N)NC(=N)Nc1ccc(Cl)cc1)NC(=N)Nc1ccc(Cl)cc1.O=C(O)[C@H](O)[C@@H](O)[C@H](O)[C@H](O)CO.O=C(O)[C@H](O)[C@@H](O)[C@H](O)[C@H](O)CO [Chlorhexidine gluconate, chlorhexidine gluconate]
  solubility in water: good water solubility

## polyhexamethylene biguanide [PHMB]
  solubility in water: good water solubility

Reference: US20250318524A1, “ANTIMICROBIAL COATING COMPOSITION AND METHOD OF USE THEREOF” (priority 2024, published 2025)
